{"source": "paper PMC3697074", "about": "(Journal of medicinal chemistry, 2011)"}
{"system": "P. falciparum K1 (CQ-resistant strain)", "assay": "Antimalarial activity, chloroquine-resistant strain K1", "assay_type": "cell-based, Plasmodium falciparum"}
{"smiles": "COc1ccc(F)cc1CNCCCNc1ccnc2cc(Oc3ccc(F)cc3)ccc12", "note": "[3{1,5,4}]", "antimalarial activity against strain K1 (in words)": "enhanced potency in strain K1"}
{"smiles": "COc1ccc(F)cc1CNCCCNc1ccnc2cc(Oc3ccccc3)ccc12", "note": "[3{1,1,4}]", "antimalarial activity against strain K1 (in words)": "enhanced potency in strain K1"}
{"smiles": "COc1cccc(Oc2ccc3c(NCCCNCc4cc(F)ccc4OC)ccnc3c2)c1", "note": "[3{1,3,4}]", "antimalarial activity against strain K1 (in words)": "enhanced potency in strain K1"}
